{"source": "patent US9737510B2", "about": "“Indazole compounds and a process for the preparation thereof” (Council of Scientific & Industrial Research, priority 2013, dated 2017)", "key": {"MIN6 cells": {"tested_on": "MIN6 cells", "assay": "Insulinotropic activity: insulin secretion from MIN6 cells (ELISA based assay)", "assay_type": "cell-based, mouse", "conditions": "for Insulin Secretion: standard error in bracket", "method": "Insulinotropic activity of the NDS100178 and NDS100179 was measured by a well-optimized ELISA based Assay (Shantani Protocol #5205) described below.\nMaterials • MIN6Cell (source: National Center for Cell Sciences, Pune) • Mouse Insulin ELISA kit (Mercodia, 10-1247-01) • Plate Shaker (MixMatefromEppendorf) • HEPES Balanced Krebs-Ringer bicarbonate buffer (components as follows)\nMethod • i. Seed proliferating culture of MIN-6 cells into a 6 well plate with almost half the confluency two days before the experiment. • ii. One the day of Insulin induction experiment, the cells should become almost confluent and are in good condition. • iii. On the day of experiment, first prepare 1×KRB-HEPES buffer with 0.1% BSA (for rinse) and without BSA (for equilibration and insulin induction) as described in the materials. • iv. Prepare equilibration buffer: 1×KRB-HEPES buffer without BSA containing 3.3 mM glucose (to bring down the glucose level of all cells to the same level). For example, add 66 ul 1 M glucose stock solution to 20 ml KRB-HEPES buffer without BSA. • v. Prepare the stimulating buffer (insulin induction): 1×KRB-HEPES buffer without BSA containing the defined glucose level (in most cases, it will be 16.7 mM glucose) and the desired concentration of molecule. • vi. Pre warm all the buffers to 37° C. in the water bath (at 15 minutes). • vii. Remove media from all wells, rinse each well twice with 2 ml KRB-HEPES buffer containing 0.1% BSA. • viii. Add 2 ml of equilibration buffer in each well and incubate at 37° C. for half an hour. • ix. After the incubation add 2 ml of stimulating buffer in respective wells (properly labelled) and incubate 37° C. for 1 hour. • x. In the meanwhile, turn on the refrigerated centrifuge and set the temperature to 4° C. Take out enzyme conjugate, diluent buffer, Calibrator 0 and stripes needed (for example, two stripes for 8 samples to be run in duplicate) from Mercodia ELISA kit box (store at 4° C.) and warm up them to RT. • xi. […] Centrifuge the tubes at 600 g for 5 min. • xiii. Take out 500 ul in fresh properly labelled precooled tubes. • xiv. Now dilute the samples 1:30 in calibrator 0 i.e. add 3 ul of each sample to 87 ul of Calibrator 0 in 8 different properly labelled 0.5 ml tubes. Mix them well. • xv. Prepare 1× enzyme conjugate buffer, i.e. mix 180 ul enzyme (11×) with 1800 ul diluent buffer for ELISA of two stripes. • xvi. Add 10 ul of each sample (diluted, in duplicate) in the two adjacent wells. Be careful not to touch the bottom. • xvii. Carefully add 100 ul of Enzyme Conjugate buffer (1×) to each well and incubate on a plate shaker (eppendorf MixMate) at 800 rpm for 2 hours at 25° C. • xviii. 45 min before the incubation is over take out wash buffer, substrate TMB and Stop solution. Keep them at RT. • xix. 5 min before the incubation is over prepare 1× wash buffer (21×), i.e. 40 ml distilled water+2 ml (21×) wash buffer in a reservoir. • xx. After the incubation is over, wash each well 7 times with 350 ul wash buffer. Use a multichannel (175 ul). • xxi. After the washing add 200 uL substrate TMB solution in each well. Maintain a proper pace. • xxii. Allow to incubate for 15 min. Set the program on the plate reader, to take absorbance read at 450 nm. Add a 5 sec shake step to allow proper mixing. • xxiii. After incubation immediately add 50 ul Stop solution in each well at same pace and take absorbance read at 450 nm.\nAssay conditions were kept same in all the assays. The difference in absorption-value for control experiment (no treatment with molecule) over different days is attributed to cell culture conditions. Other varying conditions are specified in the respective graphs.\n[Note: If not mentioned specifically, HG=High Glucose (16.7 mM), LG=Low Glucose (3.3 mM)]"}, "C57BL/6J mice [1]": {"tested_on": "C57BL/6J mice", "assay": "Oral glucose tolerance test, glucose reduction in non-diabetic C57BL/6J mice", "assay_type": "in vivo", "conditions": "fasted male C57BL/6J mice, oral dose with 3 g/kg glucose, 0-120 minutes", "method": "12-13 weeks male C57BL/6J mice were fasted overnight. In the morning animals were orally dosed with different concentrations of NDS100179 or control vehicle along with 3 g/kg of glucose. Blood glucose was measured just before the dose and then 30, 60 90 and 120 minutes after the compound dose."}, "C57BL/6J mice [2]": {"tested_on": "C57BL/6J mice", "assay": "Insulin increase / GSIS in C57BL/6J mice", "assay_type": "in vivo", "method": "Insulin at 0 and 15 minutes time points was also measured in the studies conducted above where 12-13 weeks male C57BL/6J mice were fasted overnight and in the morning orally dosed with different concentrations of NDS100179 or control vehicle along with 3 g/kg of glucose.\n(§1) NDS100179 induced insulin measurements at low and high glucose condition were carried out in Human Islets, Mice and MIN6 cells."}, "Human Islets": {"tested_on": "Human Islets", "assay": "GSIS enhancement in human islets", "assay_type": "cell-based", "conditions": "low and high glucose", "method": "as §1"}, "db/db mice": {"tested_on": "db/db mice", "assay": "30 day oral treatment of db/db mice (fasted glucose, OGTT, beta-cell function, triglyceride, body weight)", "assay_type": "in vivo", "method": "db/db or leptin null mice are well accepted model of diabetes. 7 week old db/db mice were dosed orally with 10 mg/kg, 30 mg/kg of NDS100179 and vehicle alone for 30 days. Fasted plasma glucose levels in the animals were measured before the start of the study, at day 15 and day 30.\n7 week db/db mice were dosed orally with 10 mg/kg, 30 mg/kg of NDS100179 and vehicle alone for 30 days. Beta-cell functionality was assessed using HOMA-beta % calculations at the end of 30 days.\n7 week db/db mice were dosed orally with 10 mg/kg, 30 mg/kg of NDS100179 and vehicle alone for 30 days. Triglyceride levels were measured at the end of 30 days.\n7 week db/db mice were dosed orally with 10 mg/kg, 30 mg/kg of NDS100179 and vehicle alone for 30 days. Animal body weight was measured every third day."}, "Pharmacokinetics in mice": {"assay": "Pharmacokinetics in mice", "assay_type": "in vivo", "text": "Based on the pharmacokinetics studies performed in Mice NDS100179 is 100% orally bioavailable compound (FIG. 9)."}, "Kinetic solubility": {"assay": "Kinetic solubility", "assay_type": "physicochemical"}, "CYP3A4": {"biological_target": "CYP3A4 (Homo sapiens, UniProt P08684)", "sequence (P08684 whole entry)": "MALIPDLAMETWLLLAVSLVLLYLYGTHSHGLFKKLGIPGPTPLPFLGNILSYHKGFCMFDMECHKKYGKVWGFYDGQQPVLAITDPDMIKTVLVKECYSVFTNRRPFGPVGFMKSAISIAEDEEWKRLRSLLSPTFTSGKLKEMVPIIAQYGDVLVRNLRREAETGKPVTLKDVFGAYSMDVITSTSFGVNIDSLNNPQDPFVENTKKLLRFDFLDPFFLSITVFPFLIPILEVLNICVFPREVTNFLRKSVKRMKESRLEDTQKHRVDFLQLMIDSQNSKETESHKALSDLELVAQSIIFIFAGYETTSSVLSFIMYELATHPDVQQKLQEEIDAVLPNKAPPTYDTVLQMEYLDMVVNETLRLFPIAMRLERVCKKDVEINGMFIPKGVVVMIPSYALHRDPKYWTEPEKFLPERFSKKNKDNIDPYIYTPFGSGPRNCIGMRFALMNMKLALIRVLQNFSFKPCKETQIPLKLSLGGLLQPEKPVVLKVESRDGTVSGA", "assay": "CYP3A4 inhibition", "assay_type": "in vitro ADME"}, "[3]": {"assay": "Metabolic study and intrinsic clearance in MLM", "assay_type": "in vitro ADME"}, "Metabolic study in HLM": {"assay": "Metabolic study in HLM", "assay_type": "in vitro ADME"}, "HepG2 cells": {"tested_on": "HepG2 cells", "assay": "Glucose uptake (2-NBDG) in insulin resistant HepG2 cells", "assay_type": "cell-based", "conditions": "24 hours with drug, 2-NBDG 15 min", "method": "The assay was performed after making the HepG2 cells insulin resistant by culturing them in high glucose condition with respective drugs for 24 hours. The assay was performed after 24 hours by allowing the cells to starve for 2 hrs in serum free media (containing respective drug) followed by 30 min incubation in KRB buffer (with respective drugs) and lastly incubating with 2-NBDG (fluorescent glucose analgoue) for 15 min. The cells were thoroughly washed and lysed with 1% triton-X. The fluorescence reading was immediately taken at Ex:465 and […]."}, "[4]": {"conditions": "oral 10 mg/kg, 30 mg/kg, end of 30 days"}}, "data": [{"substance": "5-Chloro-3-(4,5-dihydro-1H-imidazol-2-yl)-1-methyl-3a,7a-dihydro-1H-indazole [NDS100179]", "values": [{"measurement": "insulin secretion from MIN6 cells in high glucose conditions", "setting": "MIN6 cells; 33 uM, 1 hour, high glucose (16.7 mM), three different days", "result": "significant increase in the insulin secretion"}, {"measurement": "insulin secretion over control", "setting": "MIN6 cells; MIN6 cells, 10 nM", "result": "not found to be statistically significant"}, {"measurement": "insulin secretion over control", "setting": "MIN6 cells; MIN6 cells, 50 nM", "result": "active insulinotrope"}, {"measurement": "insulin secretion over control", "setting": "MIN6 cells; MIN6 cells, 100 nM", "result": "active insulinotrope"}, {"measurement": "Insulin Secretion", "setting": "MIN6 cells; MIN6 cells, compound 0.1 μM", "result": "5.55 (1.0) ng/ml"}, {"measurement": "Insulin Secretion", "setting": "MIN6 cells; MIN6 cells, compound 1.0 μM", "result": "10.27 (0.6) ng/ml"}, {"measurement": "Insulin Secretion", "setting": "MIN6 cells; MIN6 cells, compound 10.0 μM", "result": "15.45 (1.2) ng/ml"}, {"measurement": "glucose dependence of insulinotropic activity", "setting": "MIN6 cells; MIN6 cells, high glucose vs lower glucose conditions", "result": "glucose dependent"}, {"measurement": "GSIS enhancement", "setting": "MIN6 cells; MIN6 cells, low and high glucose", "result": "enhance insulin secretion only at high glucose concentration"}, {"measurement": "blood glucose (oral glucose tolerance test)", "setting": "C57BL/6J mice [1]", "result": "dose dependently reduce the blood glucose"}, {"measurement": "GSIS enhancement", "setting": "C57BL/6J mice [2]; Mice, low and high glucose", "result": "enhance insulin secretion only at high glucose concentration"}, {"measurement": "insulin secretion in mice", "setting": "C57BL/6J mice [2]; fasted male C57BL/6J mice, oral dose with 3 g/kg glucose, 0 and 15 minutes", "result": "blood plasma concentration glucose dependent"}, {"measurement": "GSIS enhancement", "setting": "Human Islets", "result": "enhance insulin secretion only at high glucose concentration"}, {"measurement": "glucose tolerance (OGTT)", "setting": "db/db mice; at the end of 30 days of oral treatment", "result": "significant improvement in glucose tolerance"}, {"measurement": "fasted plasma glucose (basal glucose level)", "setting": "db/db mice; oral 10 mg/kg and 30 mg/kg for 30 days, day 0, 15, 30", "result": "significant control in rise of basal glucose level"}, {"measurement": "body weight", "setting": "db/db mice; oral 10 mg/kg, 30 mg/kg for 30 days, measured every third day", "result": "No significant change in body weight"}, {"measurement": "beta-cell function (HOMA-beta %)", "setting": "db/db mice; [4]", "result": "significant improvements in beta-cell functions"}, {"measurement": "triglyceride levels", "setting": "db/db mice; [4]", "result": "significant reduction in triglyceride levels"}, {"measurement": "rise in fasted blood glucose levels", "setting": "db/db mice; oral 30 mg/kg for 30 days", "result": "no statistically significant rise"}, {"measurement": "AUC(0-t)", "setting": "Pharmacokinetics in mice", "result": 837.113, "unit": "ng·h/mL"}, {"measurement": "AUC(inf)", "setting": "Pharmacokinetics in mice", "result": 854.231, "unit": "ng·h/mL"}, {"measurement": "AUC(inf)/AUC(0-t) %", "setting": "Pharmacokinetics in mice", "result": 102.049, "unit": "%"}, {"measurement": "Cmax", "setting": "Pharmacokinetics in mice", "result": 631.1, "unit": "ng/mL"}, {"measurement": "Tmax", "setting": "Pharmacokinetics in mice", "result": 15, "unit": "min"}, {"measurement": "oral bioavailability", "setting": "Pharmacokinetics in mice", "result": 100, "unit": "%"}, {"measurement": "t½", "setting": "Pharmacokinetics in mice", "result": 102, "unit": "min"}, {"measurement": "solubility kinetic", "setting": "Kinetic solubility", "result": 205.27, "unit": "µM"}, {"measurement": "CYP3A4 Inhibition", "setting": "CYP3A4", "result": "No inhibition"}, {"measurement": "Intrinsic Clearnace MLM", "setting": "[3]", "result": "63.7 μl/min/mg of protein"}, {"measurement": "Metabolic Study MLM Mean % PCR*", "setting": "[3]", "result": 39.25, "unit": "%"}, {"measurement": "Metabolic Study HLM Mean % PCR*", "setting": "Metabolic study in HLM", "result": 80.11, "unit": "%"}, {"measurement": "glucose uptake in HepG2 cells", "setting": "HepG2 cells", "result": "increase glucose uptake"}]}]}
